In US20250326743A1, “CRYSTAL FORMS OF TRIAZINE DIONE DERIVATIVE AND PREPARATION METHOD THEREFOR” (Jiangsu Hengrui Pharmaceuticals Co., Ltd., priority 2022, published 2025):
Blank lines part the entries; values can stand above or below the molecule they belong to.

What was measured:
myosin ATPase = target: T1, myosin ATPase (Bos taurus, UniProt Q9BE39); conditions: biological evaluation in Application No. WO2022105852; cited from earlier work
T1 construct: 0.07 μM myosin motor protein SI fragment; purchased Cytoskeleton CS-MYS03 (myosin S1); AD99 (actin)
T1 sequence (Q9BE39 85-778 limits assumed): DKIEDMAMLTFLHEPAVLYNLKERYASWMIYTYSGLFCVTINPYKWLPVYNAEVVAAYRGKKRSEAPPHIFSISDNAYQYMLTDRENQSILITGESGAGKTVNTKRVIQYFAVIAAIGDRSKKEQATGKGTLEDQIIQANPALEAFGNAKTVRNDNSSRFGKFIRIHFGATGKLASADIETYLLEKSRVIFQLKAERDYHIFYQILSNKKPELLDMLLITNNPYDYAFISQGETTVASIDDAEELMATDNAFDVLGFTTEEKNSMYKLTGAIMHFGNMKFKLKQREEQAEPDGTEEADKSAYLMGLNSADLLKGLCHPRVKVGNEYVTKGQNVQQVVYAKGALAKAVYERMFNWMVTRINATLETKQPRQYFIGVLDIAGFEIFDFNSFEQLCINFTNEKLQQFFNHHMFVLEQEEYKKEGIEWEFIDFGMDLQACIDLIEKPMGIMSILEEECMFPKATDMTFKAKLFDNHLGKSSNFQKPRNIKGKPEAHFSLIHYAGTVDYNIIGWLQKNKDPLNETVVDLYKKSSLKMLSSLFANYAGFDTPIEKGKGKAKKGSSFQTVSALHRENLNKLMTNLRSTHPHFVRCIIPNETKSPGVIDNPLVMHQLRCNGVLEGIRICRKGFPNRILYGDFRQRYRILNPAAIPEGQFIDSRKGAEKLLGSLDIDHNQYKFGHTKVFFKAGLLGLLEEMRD
T1 sequence (P85100 whole entry partner, the tested form may be a part): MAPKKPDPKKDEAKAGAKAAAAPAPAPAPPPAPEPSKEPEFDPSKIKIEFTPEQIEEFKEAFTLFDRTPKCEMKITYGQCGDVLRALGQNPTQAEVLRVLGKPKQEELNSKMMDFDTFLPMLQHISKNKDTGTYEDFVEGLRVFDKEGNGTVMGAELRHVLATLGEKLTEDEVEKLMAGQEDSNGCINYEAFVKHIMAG

[1] = Toxicokinetic evaluation of 14 days of repeated intragastric administration to SD rats; format: in vivo
Procedure: SD rats were used as the test animals. After intragastric administration of the test compounds to the SD rats, the concentrations of the original forms of the compounds in the plasma and the administration solutions were measured by the LC/MS/MS method at different time points.
Twenty-four SD rats, with an equal number of males and females, were evenly divided into 6 groups, each consisting of 4 rats with an equal number of males and females. The rats were provided by Vital River Laboratory Animal Technology Co., Ltd.
A certain amount of compound MYK-461 was weighed out, and 0.5% MC was added to prepare a colorless clear solution.
Compound MYK-461 was administered at doses of 0.5 mg/kg, 1.5 mg/kg, and 3 mg/kg, each with a volume of 10 mL/kg.
0.2-mL blood samples were collected from the orbit at 0.5 h, 1.0 h, 2.0 h, 4.0 h, 8.0 h, and 24.0 h after administration on day 1, and 0.2-mL blood samples were collected from the orbit before administration and at 0.5 h, 1.0 h, 2.0 h, 4.0 h, 8.0 h, and 24.0 h after administration on day 7 and day 14. The blood samples were placed into EDTA-K2 anticoagulation tubes and centrifuged at 10,000 rpm for 1 min (4° C.), and the plasma was isolated within 1 h and stored at −20° C. before analysis. The procedure starting from the blood collection to the centrifugation was performed under ice-bath conditions. Two hours after administration, food was provided. […]

[2] = Influencing factor stability study (30 days, open flasks); format: physicochemical; conditions: for physical and chemical stability (conclusion): light exposure, 40° C. and 60° C., 75% RH and 92.5% RH
[3] = Long-term/accelerated stability study (6 months); format: physicochemical; conditions: for physical and chemical stability (conclusion): 25° C. with 60% RH and 40° C. with 75% RH
[4] = DVS (dynamic vapor sorption) hygroscopicity; format: physicochemical; conditions: for hygroscopic weight gain: DVS
Procedure: DVS refers to dynamic vapor sorption: The measurement was performed using SMS DVS Advantage; at 25° C., the humidity was changed as follows: 50%-95%-0%-95%-50%, in steps of 10% (5% for the last step) (specific humidity ranges are shown in corresponding patterns, and those listed here were used in most cases); the criterion was dm/dt being not greater than 0.002%.

[5] = Light exposure (4500 Lux), 5 days
[6] = Light exposure (4500 Lux), 10 days
[7] = Light exposure (4500 Lux), 30 days
[8] = normal storage conditions, 60% RH

Structure (SMILES): Cc1ccc(F)c([C@H](C)Nc2nc(=O)n(C3CCOCC3)c(=O)[nH]2)c1 [(S)-6-((1-(2-Fluoro-5-methylphenyl)ethyl)amino)-3-(tetrahydro-2H-pyran-4-yl)-1,3,5-triazine-2,4(1H,3H)-dione]
inhibitory effect on myosin ATPase (myosin ATPase): very good inhibitory effect
accumulation in the SD rats [1]: did not cause significant accumulation

Structure (SMILES): CC(C)n1c(=O)cc(N[C@@H](C)c2ccccc2)[nH]c1=O [MYK-461, reference compound]
accumulation in the SD rats [1]: caused significant accumulation

Color and state ([2]; 40° C., 5 days): Off-white solid
Crystal form ([2]; 40° C., 5 days): No change
Purity % ([2]; 40° C., 5 days): 99.7%
Color and state ([2]; 40° C., 10 days): Off-white solid
Crystal form ([2]; 40° C., 10 days): No change
Purity % ([2]; 40° C., 10 days): 99.7%
Color and state ([2]; 40° C., 30 days): Off-white solid
Crystal form ([2]; 40° C., 30 days): No change
Purity % ([2]; 40° C., 30 days): 99.7%
Color and state ([2]; 60° C., 5 days): Off-white solid
Crystal form ([2]; 60° C., 5 days): No change
Purity % ([2]; 60° C., 5 days): 99.7%
Color and state ([2]; 60° C., 10 days): Off-white solid
Crystal form ([2]; 60° C., 10 days): No change
Purity % ([2]; 60° C., 10 days): 99.7%
Color and state ([2]; 60° C., 30 days): Off-white solid
Crystal form ([2]; 60° C., 30 days): No change
Purity % ([2]; 60° C., 30 days): 99.7%
Color and state ([2]; 75% RH, 5 days): Off-white solid
Crystal form ([2]; 75% RH, 5 days): No change
Purity % ([2]; 75% RH, 5 days): 99.7%
Color and state ([2]; 75% RH, 10 days): Off-white solid
Crystal form ([2]; 75% RH, 10 days): No change
Purity % ([2]; 75% RH, 10 days): 99.7%
Color and state ([2]; 75% RH, 30 days): Off-white solid
Crystal form ([2]; 75% RH, 30 days): No change
Purity % ([2]; 75% RH, 30 days): 99.7%
Color and state ([2]; 92.5% RH, 5 days): Off-white solid
Crystal form ([2]; 92.5% RH, 5 days): No change
Purity % ([2]; 92.5% RH, 5 days): 99.7%
Color and state ([2]; 92.5% RH, 10 days): Off-white solid
Crystal form ([2]; 92.5% RH, 10 days): No change
Purity % ([2]; 92.5% RH, 10 days): 99.7%
Color and state ([2]; 92.5% RH, 30 days): Off-white solid
Crystal form ([2]; 92.5% RH, 30 days): No change
Purity % ([2]; 92.5% RH, 30 days): 99.7%
Color and state ([2]; Initial, 0 days): Off-white solid
Purity % ([2]; Initial, 0 days): 99.7%
Color and state [2, 5]: Off-white solid
Crystal form [2, 5]: No change
Purity % [2, 5]: 99.7%
Color and state [2, 6]: Off-white solid
Crystal form [2, 6]: No change
Purity % [2, 6]: 99.7%
Color and state [2, 7]: Off-white solid
Crystal form [2, 7]: No change
Purity % [2, 7]: 99.7%
Crystal form ([3]; 25° C./60% RH, 1 month): No change
Purity % ([3]; 25° C./60% RH, 1 month): 99.7%
Crystal form ([3]; 25° C./60% RH, 2 months): No change
Purity % ([3]; 25° C./60% RH, 2 months): 99.7%
Crystal form ([3]; 25° C./60% RH, 3 months): No change
Purity % ([3]; 25° C./60% RH, 3 months): 99.7%
Crystal form ([3]; 25° C./60% RH, 6 months): No change
Purity % ([3]; 25° C./60% RH, 6 months): 99.7%
Crystal form ([3]; 40° C./75% RH, 1 month): No change
Purity % ([3]; 40° C./75% RH, 1 month): 99.7%
Crystal form ([3]; 40° C./75% RH, 2 months): No change
Purity % ([3]; 40° C./75% RH, 2 months): 99.7%
Crystal form ([3]; 40° C./75% RH, 3 months): No change
Purity % ([3]; 40° C./75% RH, 3 months): 99.7%
Crystal form ([3]; 40° C./75% RH, 6 months): No change
Purity % ([3]; 40° C./75% RH, 6 months): 99.8%
Purity % ([3]; Initial): 99.7%
hygroscopic weight gain ([4]; accelerated conditions, 70% RH): about 0.15%
hygroscopic weight gain ([4]; extreme conditions, 90% RH): about 0.24%
hygroscopic weight gain [4, 8]: about 0.12%
crystal form after DVS testing [4]: did not change
Structure (SMILES): Cc1ccc(F)c([C@H](C)Nc2nc(=O)n(C3CCOCC3)c(=O)[nH]2)c1 [crystal form A, (S)-6-((1-(2-fluoro-5-methylphenyl)ethyl)amino)-3-(tetrahydro-2H-pyran-4-yl)-1,3,5-triazine-2,4(1H,3H)-dione]
physical and chemical stability (conclusion) ([2]; 30 days): both good physical stability and good chemical stability
physical and chemical stability (conclusion) ([3]; 6 months): both good physical stability and good chemical stability

Color and state ([2]; 40° C., 5 days): Off-white solid
Crystal form ([2]; 40° C., 5 days): No change
Purity % ([2]; 40° C., 5 days): 99.8%
Color and state ([2]; 40° C., 10 days): Off-white solid
Crystal form ([2]; 40° C., 10 days): No change
Purity % ([2]; 40° C., 10 days): 99.9%
Color and state ([2]; 40° C., 30 days): Off-white solid
Crystal form ([2]; 40° C., 30 days): No change
Purity % ([2]; 40° C., 30 days): 99.9%
Color and state ([2]; 60° C., 5 days): Off-white solid
Crystal form ([2]; 60° C., 5 days): No change
Purity % ([2]; 60° C., 5 days): 99.9%
Color and state ([2]; 60° C., 10 days): Off-white solid
Crystal form ([2]; 60° C., 10 days): No change
Purity % ([2]; 60° C., 10 days): 99.9%
Color and state ([2]; 60° C., 30 days): Off-white solid
Crystal form ([2]; 60° C., 30 days): No change
Purity % ([2]; 60° C., 30 days): 99.9%
Color and state ([2]; 75% RH, 5 days): Off-white solid
Crystal form ([2]; 75% RH, 5 days): No change
Purity % ([2]; 75% RH, 5 days): 99.8%
Color and state ([2]; 75% RH, 10 days): Off-white solid
Crystal form ([2]; 75% RH, 10 days): No change
Purity % ([2]; 75% RH, 10 days): 99.8%
Color and state ([2]; 75% RH, 30 days): Off-white solid
Crystal form ([2]; 75% RH, 30 days): No change
Purity % ([2]; 75% RH, 30 days): 99.8%
Color and state ([2]; 92.5% RH, 5 days): Off-white solid
Crystal form ([2]; 92.5% RH, 5 days): No change
Purity % ([2]; 92.5% RH, 5 days): 99.9%
Color and state ([2]; 92.5% RH, 10 days): Off-white solid
Crystal form ([2]; 92.5% RH, 10 days): No change
Purity % ([2]; 92.5% RH, 10 days): 99.9%
Color and state ([2]; 92.5% RH, 30 days): Off-white solid
Crystal form ([2]; 92.5% RH, 30 days): No change
Purity % ([2]; 92.5% RH, 30 days): 99.9%
Color and state ([2]; Initial, 0 days): Off-white solid
Purity % ([2]; Initial, 0 days): 99.9%
Color and state [2, 5]: Off-white solid
Crystal form [2, 5]: No change
Purity % [2, 5]: 99.9%
Color and state [2, 6]: Off-white solid
Crystal form [2, 6]: No change
Purity % [2, 6]: 99.9%
Color and state [2, 7]: Off-white solid
Crystal form [2, 7]: No change
Purity % [2, 7]: 99.9%
Crystal form ([3]; 25° C./60% RH, 1 month): No change
Purity % ([3]; 25° C./60% RH, 1 month): 99.8%
Crystal form ([3]; 25° C./60% RH, 2 months): No change
Purity % ([3]; 25° C./60% RH, 2 months): 99.8%
Crystal form ([3]; 25° C./60% RH, 3 months): No change
Purity % ([3]; 25° C./60% RH, 3 months): 99.9%
Crystal form ([3]; 25° C./60% RH, 6 months): No change
Purity % ([3]; 25° C./60% RH, 6 months): 99.9%
Crystal form ([3]; 40° C./75% RH, 1 month): No change
Purity % ([3]; 40° C./75% RH, 1 month): 99.9%
Crystal form ([3]; 40° C./75% RH, 2 months): No change
Purity % ([3]; 40° C./75% RH, 2 months): 99.9%
Crystal form ([3]; 40° C./75% RH, 3 months): No change
Purity % ([3]; 40° C./75% RH, 3 months): 99.9%
Crystal form ([3]; 40° C./75% RH, 6 months): No change
Purity % ([3]; 40° C./75% RH, 6 months): 99.9%
Purity % ([3]; Initial): 99.9%
hygroscopic weight gain ([4]; accelerated conditions, 70% RH): about 0.298%
hygroscopic weight gain ([4]; extreme conditions, 90% RH): about 0.418%
hygroscopic weight gain [4, 8]: about 0.242%
crystal form after DVS testing [4]: did not change
Structure (SMILES): Cc1ccc(F)c([C@H](C)Nc2nc(=O)n(C3CCOCC3)c(=O)[nH]2)c1 [crystal form B, (S)-6-((1-(2-fluoro-5-methylphenyl)ethyl)amino)-3-(tetrahydro-2H-pyran-4-yl)-1,3,5-triazine-2,4(1H,3H)-dione]
physical and chemical stability (conclusion) ([2]; 30 days): both good physical stability and good chemical stability
physical and chemical stability (conclusion) ([3]; 6 months): both good physical stability and good chemical stability
